The values below are quoted from earlier work in US20130085461A1, “Method for Pre-Debriding Treatment of Non-Viable Skin Tissue and Compositions and System Thereof” (BIOMEDICAL CONCEPTS LLC, priority 2011, published 2013).

Where two headings read alike, the source gives them in different places.

The data set addresses T1, rat tail Type I collagen (Rattus norvegicus, UniProt P02454+P02466).
T1 construct: host or cells: rat tail (tissue), as reported in the cited work
As to conditions: non-viable rat tail Type I collagen.

T1 sequence (P02454 152-1207 limits assumed): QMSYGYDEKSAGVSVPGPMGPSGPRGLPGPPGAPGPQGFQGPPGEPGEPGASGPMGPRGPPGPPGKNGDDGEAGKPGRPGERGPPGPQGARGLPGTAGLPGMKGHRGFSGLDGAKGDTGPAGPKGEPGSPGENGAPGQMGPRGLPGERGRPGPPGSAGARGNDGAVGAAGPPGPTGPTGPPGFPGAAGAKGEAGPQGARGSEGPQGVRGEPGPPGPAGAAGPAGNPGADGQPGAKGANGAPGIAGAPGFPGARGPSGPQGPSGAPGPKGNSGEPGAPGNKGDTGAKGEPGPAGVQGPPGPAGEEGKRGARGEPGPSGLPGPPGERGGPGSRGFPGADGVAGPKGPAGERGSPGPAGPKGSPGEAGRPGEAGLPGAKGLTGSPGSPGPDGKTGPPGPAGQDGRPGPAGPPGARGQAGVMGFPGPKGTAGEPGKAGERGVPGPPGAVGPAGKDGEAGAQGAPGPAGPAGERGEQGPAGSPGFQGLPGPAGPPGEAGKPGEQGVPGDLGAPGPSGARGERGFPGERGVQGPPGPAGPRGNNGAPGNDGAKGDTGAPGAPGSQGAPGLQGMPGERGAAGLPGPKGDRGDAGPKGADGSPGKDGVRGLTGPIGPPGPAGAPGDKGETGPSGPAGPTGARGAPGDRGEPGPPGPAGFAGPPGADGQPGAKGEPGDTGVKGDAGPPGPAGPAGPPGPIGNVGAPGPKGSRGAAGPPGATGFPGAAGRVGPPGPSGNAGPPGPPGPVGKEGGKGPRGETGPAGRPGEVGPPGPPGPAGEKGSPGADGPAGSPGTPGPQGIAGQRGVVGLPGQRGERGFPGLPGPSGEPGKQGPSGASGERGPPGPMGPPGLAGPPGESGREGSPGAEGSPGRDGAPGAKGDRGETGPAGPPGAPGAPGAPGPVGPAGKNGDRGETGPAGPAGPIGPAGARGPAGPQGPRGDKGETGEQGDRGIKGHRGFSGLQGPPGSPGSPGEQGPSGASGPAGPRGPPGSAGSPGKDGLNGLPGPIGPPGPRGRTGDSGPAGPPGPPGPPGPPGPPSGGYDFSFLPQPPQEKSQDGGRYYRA
T1 sequence (P02466 86-1125 limits assumed): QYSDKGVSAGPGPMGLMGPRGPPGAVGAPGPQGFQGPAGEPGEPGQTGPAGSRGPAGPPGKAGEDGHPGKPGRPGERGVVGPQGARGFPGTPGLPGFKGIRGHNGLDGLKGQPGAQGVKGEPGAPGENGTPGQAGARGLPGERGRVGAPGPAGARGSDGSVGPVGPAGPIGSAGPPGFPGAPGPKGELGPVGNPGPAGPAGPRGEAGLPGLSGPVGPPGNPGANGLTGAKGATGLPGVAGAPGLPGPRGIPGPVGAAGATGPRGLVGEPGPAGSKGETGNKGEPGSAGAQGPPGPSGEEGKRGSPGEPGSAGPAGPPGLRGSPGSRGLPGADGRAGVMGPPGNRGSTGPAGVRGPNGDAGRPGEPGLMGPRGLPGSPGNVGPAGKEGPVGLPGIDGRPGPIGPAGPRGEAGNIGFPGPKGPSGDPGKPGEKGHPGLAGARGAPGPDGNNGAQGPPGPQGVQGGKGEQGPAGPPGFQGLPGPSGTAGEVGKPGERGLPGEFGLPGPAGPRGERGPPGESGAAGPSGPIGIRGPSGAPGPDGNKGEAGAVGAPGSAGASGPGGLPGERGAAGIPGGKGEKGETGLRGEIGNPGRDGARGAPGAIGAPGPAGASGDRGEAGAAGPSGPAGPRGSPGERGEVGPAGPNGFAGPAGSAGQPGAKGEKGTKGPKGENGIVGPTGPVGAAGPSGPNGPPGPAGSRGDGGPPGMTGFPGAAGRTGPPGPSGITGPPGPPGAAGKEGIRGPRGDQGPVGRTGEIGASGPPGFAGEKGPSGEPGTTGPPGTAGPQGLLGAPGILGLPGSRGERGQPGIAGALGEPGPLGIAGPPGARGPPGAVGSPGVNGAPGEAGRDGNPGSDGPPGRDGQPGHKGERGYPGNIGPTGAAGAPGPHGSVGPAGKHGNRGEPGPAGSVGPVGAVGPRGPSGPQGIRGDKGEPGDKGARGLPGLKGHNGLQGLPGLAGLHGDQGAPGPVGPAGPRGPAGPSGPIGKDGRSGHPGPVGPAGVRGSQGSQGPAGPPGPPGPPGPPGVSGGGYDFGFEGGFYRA

Turning to `CCCO` [n-propanol], under “10 mole %”, the “reduction of denaturation temperature (Tm=67.5° C.)” value is 3.5 °C.

`NC(N)=O` [urea]: the “reduction of denaturation temperature (Tm=67.5° C.)” value (3M) is 13.5 °C.
